Data: US8629171B2, “Crystalline form of methyl ((1S)-1-((25)-2-(5-(4'-(2-((25)-1((2S)-2-((methoxycarbonyl)amino)-3-methylbutanoyl)-2-pyrrolidinyl)-1H-imidazol-2-yl)-1-pyrrolidinyl)carbonyl)-2-methylpropyl)carbamate dihydrochloride salt” (Bristol-Myers Squibb Company, priority 2007, dated 2014)
Structures can show the parent of a compound that is named as a salt.

Test: aqueous solubility
Format: physicochemical
Conditions: crystalline Form N-2 of the dihydrochloride salt

- aqueous solubility: high
Compound: COC(=O)N[C@H](C(=O)N1CCC[C@H]1c1nc(-c2ccc(-c3ccc(-c4c[nH]c([C@@H]5CCCN5C(=O)[C@@H](NC(=O)OC)C(C)C)n4)cc3)cc2)c[nH]1)C(C)C [Compound (I), methyl ((1S)-1-(((2S)-2-(5-(4′-(2-((2S)-1-((2S)-2-((methoxycarbonyl)amino)-3-methylbutanoyl-2-pyrrolidinyl)-1H-imidazol-5-yl)-4-biphenylyl)-1H-imidazol-2-yl)-1-pyrrolidinyl)carbonyl)-2-methylpropyl)carbamatedihydrochloride salt]
